Values of other authors in patent US20240415910A1, “Toxicity-Removed and Medicinal Effect-Retained Fuzi Decoction Granule and Preparation Method Thereof” (Zhejiang Chinese Medical University, priority 2023, published 2024).

How the values were obtained:
[1] = oral administration
[2] = water and ethanol

CCN1C[C@]2(COC)[C@H](O)C[C@H](OC)[C@@]34[C@@H]5C[C@@]6(O)[C@H](OC(=O)c7ccccc7)[C@@H]5[C@@](OC(C)=O)([C@@H]([C@H](OC)[C@H]23)[C@@H]14)[C@@H](O)[C@@H]6OC [Aconitine]
oral amount that can cause poisoning reactions [1]: 0.2 mg
solubility [2]: soluble in both water and ethanol
